Tests used:
[1] = system: mouse peritoneal macrophages; test: Phagocytosis assay (FITC-labeled E. coli bioparticles); format: cell-based
Description: Macrophages were seeded into a 96-well plate (2×10^5 cells/well) and were stimulated with IL4 or LPS+IFNγ for 24 h with or without emodin. Phagocytotic activity was measured using a Vybrant Phagocytosis assay kit (Molecular Probes). The medium was removed and the cells were washed with PBS. The fluorescent BioParticle suspension was added to the cells and incubated up to 6 h. After the indicated time, the BioParticle suspension was removed, any extracellular fluorescence was quenched with trypan blue, and the intracellular fluorescence was detected using a Spectramax M5 microplate reader (Molecular Devices, Sunnyvale, Calif.).

[2] = system: mouse peritoneal macrophages; test: NO production assay; format: cell-based; details: LPS/IFNγ 24 h, emodin 0-50 μM
Description: Macrophages were stimulated with LPS+IFNγ for 24 h with various concentrations of emodin (0-50 μM). The culture media was then collected and the NO content was detected using a Nitrite/Nitrate colormetric kit (Sigma-Aldrich) according to the manufacturer's instructions. The assay was read using a Spectramax M5 microplate reader (Molecular Devices, Sunnyvale, Calif.).

[3] = system: mouse peritoneal macrophages; test: Macrophage memory experiments (re-stimulation after washout); format: cell-based
Description: For macrophage memory experiments, macrophages were stimulated overnight with IL4, IFNγ, and/or emodin. Following, the cells were washed 3× with PBS and cultured for 2 or 5 days in DMEM with 2% FBS. The media were changed every 2 days. The cells were then re-stimulated with IL4 or LPS for 6 h.
For qPCR, macrophages were lysed with Qiazol and RNA was extracted using Zymo research Direct-zol RNA isolation kit. cDNA was then made from 1 microgram of RNA using iScript cDNA Synthesis Kit (Bio-Rad Life Science). Run conditions were 95° C. for 10 s, 58° C. for 15 s, 70° C. for 15 s. Samples were run in duplicate on a Bio-rad CFX Real Time thermocycler.

EO771 cells [4] = test: Cell viability, LDH assay; format: cell-based, mouse; details: emodin 0-100 μM, 24-48 h
Description: Tumor cells (2×10^4 EO771 or 4T1 cells) were seeded into 96 well culture plates in DMEM with 10% FBS. The cells were incubated overnight at 37° C. The medium was then removed, and the cells were washed with phosphate-buffered saline (PBS). DMEM containing varying concentrations of emodin (0-100 μM) was then added to the cells in quadruplicate. Vehicle control contained an equal volume of DMSO. Plates of cells were then incubated for 24-48 h. After an indicated period, the viability of the cells was determined using a Lactate Dehydrogenase (LDH) Cytotoxicity Detection Kit (Clontech Mountain View, Calif.) according to the manufacturer's instructions. Briefly, the supernatant was removed from each well on the plate and placed in a new well on the same plate. An equal volume of cell lysis buffer (2% triton in DMEM) was then added to each well containing the cancer cells, and the cells were incubated at room temperature for 15 min. The reaction mixture was then added to each well (cell lysate plus supernatant) and incubated for 5 min before the stop solution was added. The absorbance was measured at 490 nm on a Spectra Max M5 Microplate Reader (Molecular Devices, Sunnyvale, Calif.). The percent viability was then calculated as the ratio of LDH in the cell lysate to the total amount of LDH in the lysate plus the supernatant. The viability of each group was compared to the control.

4T1 cells [5] = test: Proliferation, Ki67 staining; format: cell-based, mouse; details: 24 h
Description: (§1) For Ki67 staining, 4T1 and EO771 tumor cells were seeded into 6 well plates and cultured in SF DMEM overnight. They were then treated with various concentrations of emodin (0-50 μM) for 24 h. The cells were resuspended with trypsin plus EDTA and fixed with 1% paraformaldehyde. The cells were then permeabilized with 0.25% Triton X-100 and stained with anti-Ki67 […] (Abcam). The cells were washed and incubated with goat anti-rabbit Alexa 488 (Invitrogen, Eugene, Oreg.). After washing, the samples were analyzed by flow cytometry using a BD FACS flow cytometer and CXP software version 2.2. Data were collected for 10,000 live events per sample.

EO771 cells [6] = test: Proliferation, Ki67 staining; format: cell-based, mouse; details: 24 h
Description: as §1

4T1 cells [7] = test: Macrophage migration toward conditioned medium of emodin-treated tumor cells; format: cell-based, mouse; details: increasing concentrations of emodin, 24 h treatment
Description: EO771 or 4T1 cells were treated with 0-50 μM emodin for 24 h. The cells were then washed multiple times with PBS, further cultured, and TCM was collected. The TCM was placed in the bottom chamber of transwell inserts, and 2×10^5 macrophages were seeded into the top chamber in SF DMEM. The cells were incubated at 37° C. with 5% CO2 for 4 h. The membranes were then fixed with 4% paraformaldehyde for 10 min. The cells were removed from the top chamber using cotton swabs, and the cells on the bottom chamber were stained with DAPI (1 μg/mL). The inserts were then cut out, mounted onto slides, and imaged under a Nikon Eclipse E-600 fluorescence microscope (Nikon Inc. Melville, N.Y.) at 20× magnification (5 fields/insert). DAPI stained cells were quantified using ImagePro Plus software.

[8] = system: Breast tumor cells from MMTV-PyMT mice; test: Gene expression in ex vivo breast tumor cells (qPCR); format: cell-based, mouse
4T1 tumors = test: Survival after surgical removal of primary 4T1 tumors; format: in vivo, BALB/c mice; details: 10 mice
Description: A cohort of 30 8-week-old, female BALB/c mice were injected with 2×10^5 4T1 cells suspended in 20 μL PBS in each of their fourth mammary fat pads. The mice were randomly divided into three groups with 10 mice in each group. On day 10, tumors had reached a volume of 100-200 mm^3, and were surgically removed. […] Post-surgical treatment began on day 11. This treatment involved each of the three groups receiving 800 μL daily IP injections of one of the following mixtures: PBS with 2% DMSO by volume (Control group), PBS with 1% DMSO by volume and 1% by volume of 50 mg/mL emodin in DMSO, or PBS with 2% by volume of 50 mg/mL emodin in DMSO. […] Daily IP emodin injections were administered until day 24; from day 25 to day 41, emodin was administered every other day. During the 41 days after the tumor removal, 3 mice in the control group died, while 2 mice and 1 mouse died in low emodin group and high emodin group, respectively (FIG. 16).

Cc1cc(O)c2c(c1)C(=O)c1cc(O)cc(O)c1C2=O [emodin]
inhibition of bioparticle uptake ([1]; IL4 or LPS/IFNγ stimulated macrophages, emodin 50 μM 24 h): ~2 fold
phagocytic activity of naïve cells ([1]; emodin alone, 6 h time point): increase phagocytic activity
NO production [2]: dose dependently inhibited
macrophage response to IL4 after emodin pretreatment alone ([3]; 50 μM 24 h, 2-d washout, IL4 6 h): significantly reduced
macrophage response to LPS after emodin pretreatment alone ([3]; 50 μM 24 h, 2-d washout, LPS 6 h): no effect
nuclear STAT1 or STAT6 after 5 days of wash-out ([3]; IFNγ or IL4 pretreated cells with or without emodin): no significant difference
macrophage response to LPS after IL4 pre-treatment (crossover) ([3]; co-pretreatment with emodin): did not have any effects
response to secondary IL-4 stimulation after IFNγ pretreatment (crossover) ([3]; emodin co-pretreatment): decreased the response
response to second LPS or IL-4 treatment (iNOS, Arg1 expression) ([3]; first treated with emodin 50 μM with IFNγ or IL4 24 h, 2 d or 5 d washout): significantly diminished
concentration from which a slight effect on cell viability starts (EO771 cells [4]): ≥ 25 µM
concentrations with no significant effect on cell proliferation (4T1 cells [5]): less than 50 μM
concentrations with no significant effect on cell proliferation (EO771 cells [6]): less than 50 μM
macrophage migration toward TCM from emodin-treated tumor cells (4T1 cells [7]): decrease in macrophage migration
expression of CCL2, CSF1, CD90, N-cadherin, vimentin, FoxC2 and KLF4 [8]: significantly suppressed
mice that died during the 41 days after tumor removal (4T1 tumors; high emodin dose group, approximately 40 mg/kg IP): 1 mouse
mice that died during the 41 days after tumor removal (4T1 tumors; low emodin dose group, approximately 20 mg/kg IP): 2 mice

From US9795570B2, “Modulation of macrophage phenotype by emodin” (University of South Carolina, priority 2016, dated 2017)
